Experiments:
[1] = transdermal flux of lidocaine and epinephrine from gel formulations 14 and 15 (Example 3); details: formulation 14 (pH 3.68) vs 15 (pH 6.42); samples at 10, 30, 60 and 90 minutes
Experimental: The formulation 14 and 15 gels were subjected to transdermal flux experiments using heat stripped chest and breast skin from human cadavers using the electrotransport permeation cell described in Example 2 and FIG. 3. Measurements were taken from the receptor compartment of the cell at 10 minutes, 30 minutes, 60 minutes, and 90 minutes after start of application of electrotransport current.

[2] = pH of lidocaine donor solutions of varying base:salt ratio (Example 1); type: physicochemical
Experimental: Two identical experiments were conducted at pHs 4.95 and 7.35, one at pH 6.85, and three at pH 6.25.

In the case of `CNC[C@H](O)c1ccc(O)c(O)c1` [epinephrine], the “transdermal flux, formulation 14 versus 15” value [1] is reported as “did not have a significant statistical difference between formulation 14 and 15”.
`CCN(CC)CC(=O)Nc1c(C)cccc1C` [lidocaine] gave a pH ([2]; 0 mmoles lidocaine base, 199 mmoles lidocaine HCl) of 4.95, a pH ([2]; 2.1 mmoles lidocaine base, 195 mmoles lidocaine HCl) of 6.25 and a pH ([2]; 6.0 mmoles lidocaine base, 191 mmoles lidocaine HCl) of 6.85. For the same compound, the pH ([2]; 20.3 mmoles lidocaine base, 179 mmoles lidocaine HCl) was 7.35.

From patent US5990179A, “Composition and method of enhancing electrotransport agent delivery” (ALZA Corporation, priority 1995, dated 1999)
